Results: patent US11566007B2, “Ras inhibitors” (Revolution Medicines, Inc., priority 2019, dated 2023)
“And” between values parts separate entries of the source, which are not always exact repeats. Equal values may be shown once. Read-outs that look alike come from different tables or passages of the source.

What was measured:
[1] = system: NCI-H358 cells (K-Ras G12C); test: Potency assay: pERK in NCI-H358 cells; assay type: cell-based, human
Procedure, shortened: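 Compounds are dosed as ten 3-fold dilutions from a 10 mM DMSO stock, in duplicate, and left on cells for 4 h at 37 °C, 5% CO2. Phospho-ERK1/2 is then quantified by AlphaLISA SureFire Ultra or In-Cell Western, and IC50 is derived from a 4-parameter sigmoid against log concentration.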

KRAS G12V = KRAS G12V (Homo sapiens (Human), UniProt P01116+P62937, G12V); test: Ras-Raf (BRAF RBD) disruption / FRET / MOA assay, KRAS G12V; assay type: biochemical; settings: read-out: IC50* KRAS G12V FRET data
Procedure, shortened: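 Ras:RAF disruption was scored as a fall in TR-FRET ratio relative to DMSO. Compound ranged in 3-fold steps over 10 points from 30 μM final; incubation ran 3 h at 25° C, detection antibodies a further 1.5 h. Reported as IC50.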

[2] = Homo sapiens, NCI-H358, H358 KRAS G12C, read-out: pERK EC50

Chain of KRAS G12V (P01116-2 other isoform, or with tags, fused parts or gaps G12V): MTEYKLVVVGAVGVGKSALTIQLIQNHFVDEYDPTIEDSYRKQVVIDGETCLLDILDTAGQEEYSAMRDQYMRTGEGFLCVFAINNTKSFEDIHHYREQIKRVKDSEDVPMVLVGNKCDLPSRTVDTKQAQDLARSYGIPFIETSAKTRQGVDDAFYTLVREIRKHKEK
Chain of KRAS G12V (P62937 whole entry): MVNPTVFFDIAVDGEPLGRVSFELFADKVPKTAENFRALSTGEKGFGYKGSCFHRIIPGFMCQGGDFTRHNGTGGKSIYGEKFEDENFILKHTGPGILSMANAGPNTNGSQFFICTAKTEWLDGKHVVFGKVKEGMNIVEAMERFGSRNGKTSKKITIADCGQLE

SMILES	EC50 [1, 2] [µM]	IC50 (KRAS G12V)	EC50 ([1]; H358 KRAS G12C, read-out: pERK EC50) [µM]	EC50 ([1]; Homo sapiens, NCI-H358, read-out: pERK EC50) [µM]
C=CC(=O)N1CC[C@H](C(=O)N(C)[C@H](C(=O)N[C@H]2Cc3cc(O)cc(c3)-c3ccc4c(c3)c(c(-c3cccnc3[C@H](CC)OC)n4CC)CC(C)(C)COC(=O)[C@@H]3CCCN(N3)C2=O)C(C)C)C1 (atropisomer, axis not shown) [Example A181]	< 5	0.1 to 1 µM and 1 to 10 µM	–	–
C=CC(=O)N1CC[C@H](C(=O)N(C)[C@H](C(=O)N[C@H]2Cc3nc(ns3)-c3ccc4c(c3)c(c(-c3cccnc3[C@H](C)OC)n4CC)CC(C)(C)COC(=O)[C@@H]3CCCN(N3)C2=O)C(C)C)C1 (atropisomer, axis not shown) [Example A202]	< 5	> 10 µM	–	–
C=CC(=O)N1CC[C@H](C(=O)N(C)[C@H](C(=O)N[C@H]2Cc3cc(O)cc(c3)-c3ccc4c(c3)c(c(-c3cccnc3[C@@H](OC)C3CC3)n4CC)CC(C)(C)COC(=O)[C@@H]3CCCN(N3)C2=O)C(C)C)C1 (atropisomer, axis not shown) [Example A207]	–	–	< 5	–
C=CC(=O)N1CC[C@H](C(=O)N(C)[C@H](C(=O)N[C@H]2Cc3cc(O)cc(c3)-c3ccc4c(c3)c(c(-c3cccnc3[C@@H]3CCCO3)n4CC)CC(C)(C)COC(=O)[C@@H]3CCCN(N3)C2=O)C(C)C)C1 (atropisomer, axis not shown) [Example A281]	< 5	0.1 to 1 µM	–	–
C=CC(=O)N1CC[C@H](C(=O)N(C)[C@H](C(=O)N[C@H]2Cc3nc(n(C)n3)-c3ccc4c(c3)c(c(-c3cccnc3[C@H](C)OC)n4CC)CC(C)(C)COC(=O)[C@@H]3CCCN(N3)C2=O)C(C)C)C1 (atropisomer, axis not shown) [Example A314]	< 5	1 to 10 µM	–	–
C=CC(=O)N1CC[C@H](C(=O)N(C)[C@H](C(=O)N[C@H]2Cc3csc(n3)-c3ccc4c(c3)c(c(-c3cccnc3[C@H](C)OC)n4CC)CC(C)(C)COC(=O)[C@@H]3CCCN(N3)C2=O)C(C)C)C1 (atropisomer, axis not shown) [Example A330]	< 5	1 to 10 µM	–	–
C=CC(=O)N1CC[C@]2(C1)CN(C(=O)N(C)[C@H](C(=O)N[C@H]1Cc3nc(cs3)-c3ccc4c(c3)c(c(-c3cccnc3[C@H](C)OC)n4CC)CC(C)(C)COC(=O)[C@@H]3CCCN(N3)C1=O)C(C)C)CCO2 (atropisomer, axis not shown) [Example A354]	< 5	0.1 to 1 µM	–	–
C=CC(=O)N1CC[C@@]2(C1)OCN([C@H](C(=O)N[C@H]1Cc3cccc(c3)-c3ccc4c(c3)c(c(-c3cccnc3[C@H](C)OC)n4CC)CC(C)(C)COC(=O)[C@@H]3CCCN(N3)C1=O)C(C)C)C2=O (atropisomer, axis not shown) [Example A358]	< 5	1 to 10 µM	–	–
CO[C@@H](C)c1ncccc1-c1c2c3cc(ccc3n1CC(F)(F)F)-c1csc(n1)C[C@H](NC(=O)CCOC1CN(C(=O)C#CC(C)(C)N3CCC3)C1)C(=O)N1CCC[C@H](N1)C(=O)OCC(C)(C)C2 (atropisomer, axis not shown) [Example A363]	< 5	1 to 10 µM	–	–
C=CC(=O)N(C)C[C@H]1CCN1C(=O)N(C)[C@H](C(=O)N[C@H]1Cc2nc(cs2)-c2ccc3c(c2)c(c(-c2cccnc2[C@H](C)OC)n3CC)CC(C)(C)COC(=O)[C@@H]2CCCN(N2)C1=O)C(C)C (atropisomer, axis not shown) [Example A369]	< 5	0.1 to 1 µM	–	–
C=CC(=O)N1CC[C@H](C(=O)N(C)[C@H](C(=O)N[C@H]2Cc3cccc(c3)-c3ccc4c(c3)c(c(-c3cccnc3[C@H](C)OC)n4CC)CC(C)(C)COC(=O)[C@@H]3CCCN(N3)C2=O)C(C)C)[C@H]1C (atropisomer, axis not shown) [Example A373]	< 5	0.1 to 1 µM	–	–
CO[C@@H](C)c1ncccc1-c1c2c3cc(ccc3n1CC(F)(F)F)-c1cc(cc(C(F)F)c1)C[C@H](NC(=O)[C@@H](COC1CN(C(=O)C#CC(C)(C)N(C)C)C1)C(C)C)C(=O)N1CCC[C@H](N1)C(=O)OCC(C)(C)C2 (atropisomer, axis not shown) [Example A374]	< 5	> 10 µM	–	–
CCn1c(-c2cccnc2[C@H](C)OC)c2c3cc(ccc31)-c1csc(n1)C[C@H](NC(=O)CCO[C@H]1CCN(C(=O)C#CC(C)(C)N3CCC3)C1)C(=O)N1CCC[C@H](N1)C(=O)OCC(C)(C)C2 (atropisomer, axis not shown) [Example A381]	< 5	1 to 10 µM	–	–
C=CC(=O)N(C)C[C@@H]1CCN1C(=O)N(C)[C@H](C(=O)N[C@H]1Cc2nc(cs2)-c2ccc3c(c2)c(c(-c2cccnc2[C@H](C)OC)n3CC)CC(C)(C)COC(=O)[C@@H]2CCCN(N2)C1=O)C(C)C (atropisomer, axis not shown) [Example A390]	< 5	1 to 10 µM	–	–
C=CC(=O)N1CC[C@H](C(=O)N(C)[C@H](C(=O)N[C@H]2Cc3cccc(c3)-c3ccc4c(c3)c(c(-c3cc(C5CN(C)C5)cnc3[C@H](C)OC)n4CC)CC(C)(C)COC(=O)[C@@H]3CCCN(N3)C2=O)C(C)C)C1 (atropisomer, axis not shown) [Example A392]	< 5	1 to 10 µM	–	–
C=CC(=O)N1CC[C@H](C(=O)N(C)[C@H](C(=O)N[C@H]2Cc3cccc(n3)-c3ccc4c(c3)c(c(-c3cccnc3[C@H](C)OC)n4CC)CC(C)(C)COC(=O)[C@@H]3CCCN(N3)C2=O)C(C)C)C1 (atropisomer, axis not shown) [Example A442]	< 5	> 10 µM	–	–
C=CC(=O)N1CC[C@H](C(=O)N(C)[C@H](C(=O)N[C@H]2Cc3cccc(c3)-c3ccc4c(c3)c(c(-c3cccnc3[C@H](C)OC)n4CC3COC3)CC(C)(C)COC(=O)[C@@H]3CCCN(N3)C2=O)C(C)C)C1 (atropisomer, axis not shown) [Example A481]	< 5	1 to 10 µM	–	–
C=CC(=O)N1CC[C@H](C(=O)N2CCCCC[C@H]2C(=O)N[C@H]2Cc3nc(cs3)-c3ccc4c(c3)c(c(-c3cccnc3[C@H](C)OC)n4CC)CC(C)(C)COC(=O)[C@@H]3CCCN(N3)C2=O)C1 (atropisomer, axis not shown) [Example A495]	< 5	1 to 10 µM	–	–
C=CC(=O)N(C)CCN1CCN(C(=O)N(C)[C@H](C(=O)N[C@H]2Cc3cccc(c3)-c3ccc4c(c3)c(c(-c3cccnc3[C@H](C)OC)n4CC)CC(C)(C)COC(=O)[C@@H]3CCCN(N3)C2=O)C(C)C)CC1 (atropisomer, axis not shown) [Example A539]	< 5	0.1 to 1 µM	–	–
C=CC(=O)N1CCOC2(CCN(C(=O)N(C)[C@H](C(=O)N[C@H]3Cc4cc(C(F)F)cc(n4)-c4ccc5c(c4)c(c(-c4cccnc4[C@H](C)OC)n5CC(F)(F)F)CC(C)(C)COC(=O)[C@@H]4CCCN(N4)C3=O)C(C)C)CC2)C1 (atropisomer, axis not shown) [Example A541]	< 5	1 to 10 µM	–	–
C=CC(=O)N1CCC[C@]12CCN(C(=O)N(C)[C@H](C(=O)N[C@H]1Cc3nc(cs3)-c3ccc4c(c3)c(c(-c3cccnc3[C@H](C)OC)n4CC)CC(C)(C)COC(=O)[C@@H]3CCCN(N3)C1=O)C(C)C)C2 (atropisomer, axis not shown) [Example A548]	< 5	0.1 to 1 µM	–	–
C=CC(=O)N(C)CCN1CCN(C(=O)N(C)[C@H](C(=O)N[C@H]2Cc3cccc(c3)-c3ccc4c(c3)c(c(-c3cccnc3[C@H](C)OC)n4CC)CC(C)(C)COC(=O)[C@@H]3CCCN(N3)C2=O)C(C)C)C[C@H]1C (atropisomer, axis not shown) [Example A553]	< 5	1 to 10 µM	–	–
C=CC(=O)N1CCC2(CCN(C(=O)N(C)[C@H](C(=O)N[C@H]3Cc4cccc(c4)-c4ccc5c(c4)c(c(-c4cccnc4[C@H](C)OC)n5CC)CC(C)(C)COC(=O)[C@@H]4CCCN(N4)C3=O)C(C)C)CC2)C1 (atropisomer, axis not shown) [Example A554]	< 5	0.1 to 1 µM	–	–
C=CC(=O)N1CC[C@]2(C1)OCN([C@H](C(=O)N[C@H]1Cc3cc(cc(C(F)F)c3)-c3ccc4c(c3)c(c(-c3cccnc3[C@H](C)OC)n4CC)CC(C)(C)COC(=O)[C@@H]3CCCN(N3)C1=O)C(C)C)C2=O (atropisomer, axis not shown) [Example A557]	< 5	1 to 10 µM	–	–
CCn1c(-c2cccnc2[C@H](C)OC)c2c3cc(ccc31)-c1cccc(c1)C[C@H](NC(=O)[C@H](C(C)C)N1CC[C@]3(CCN(C(=O)C#C[C@H]4COCCN4C4COC4)C3)C1=O)C(=O)N1CCC[C@H](N1)C(=O)OCC(C)(C)C2 (atropisomer, axis not shown) [Example A568]	< 5	> 10 µM	–	–
CCn1c(-c2cccnc2[C@H](C)OC)c2c3cc(ccc31)-c1cccc(c1)C[C@H](NC(=O)[C@H](C(C)C)N1CC[C@]3(CCN(C(=O)C#C[C@@H]4COCCN4C)C3)C1=O)C(=O)N1CCC[C@H](N1)C(=O)OCC(C)(C)C2 (atropisomer, axis not shown) [Example A569]	–	> 10 µM	–	< 5
C=CC(=O)N(C)CCN1CCN(C(=O)N(C)[C@H](C(=O)N[C@H]2Cc3cccc(c3)-c3ccc4c(c3)c(c(-c3cccnc3[C@H](C)OC)n4CC)CC(C)(C)COC(=O)[C@@H]3CCCN(N3)C2=O)C(C)C)C[C@@H]1C (atropisomer, axis not shown) [Example A570]	< 5	0.1 to 1 µM	–	–
C=CC(=O)N1CCO[C@H]2CN(C(=O)N(C)[C@H](C(=O)N[C@H]3Cc4nc(n(C)n4)-c4ccc5c(c4)c(c(-c4cccnc4[C@H](C)OC)n5CC(F)(F)F)CC(C)(C)COC(=O)[C@@H]4CCCN(N4)C3=O)C(C)C)C[C@H]21 (atropisomer, axis not shown) [Example A575]	< 5	1 to 10 µM	–	–
C=CC(=O)N1CCO[C@]2(CCN(C(=O)N(C)[C@H](C(=O)N[C@H]3Cc4nc(cs4)-c4ccc5c(c4)c(c(-c4cccnc4[C@H](C)OC)n5CC(F)(F)F)CC(C)(C)COC(=O)[C@@H]4CCCN(N4)C3=O)C(C)C)C2)C1 (atropisomer, axis not shown) [Example A593]	< 5	1 to 10 µM	–	–
